Measurements from the NIST ThermoML archive (doi:10.1007/s10765-010-0861-2).

Key:
[1] = 101.33 kPa, Liquid; for mass density: Pycnometric method
[2] = xn = mol fraction of the nth substance listed; details: 308.15 K, 101 kPa, Liquid, Frequency=2 MHz

Cc1ccccc1 [toluene]
[1], 298.15 K
Details | mass density [kg/m3] | speed of sound [m/s]
– | 862.23 | 1305

c1ccccc1 [benzene]
[1], 298.15 K
Details | mass density [kg/m3] | speed of sound [m/s]
– | 873.62 | 1298

c1ccccc1 [benzene] + CCCO
[2]
Details | speed of sound [m/s]
x1 = 0.0852 | 1192
x1 = 0.1733 | 1196
x1 = 0.2644 | 1200
x1 = 0.3059 | 1201
x1 = 0.3586 | 1203
x1 = 0.3995 | 1204
x1 = 0.4561 | 1206
x1 = 0.5274 | 1208
x1 = 0.582 | 1210
x1 = 0.6618 | 1213
x1 = 0.7267 | 1216
x1 = 0.7703 | 1219
x1 = 0.883 | 1233
x1 = 0.9335 | 1242

O=C1CCCN1 [2-pyrrolidinone]
[1]
Details | mass density [kg/m3] | speed of sound [m/s]
298.15 K | 1107.26 | –
308.15 K | – | 1603

CCCO [propan-1-ol]
[1], 298.15 K
Details | mass density [kg/m3] | speed of sound [m/s]
– | 799.28 | 1188

Cc1ccccc1 [toluene] + CCCO
[2]
Details | speed of sound [m/s]
x1 = 0.0724 | 1193
x1 = 0.1494 | 1199
x1 = 0.2314 | 1204
x1 = 0.319 | 1209
x1 = 0.3586 | 1211
x1 = 0.4352 | 1216
x1 = 0.5131 | 1220
x1 = 0.5724 | 1224
x1 = 0.6211 | 1227
x1 = 0.6846 | 1231
x1 = 0.7376 | 1235
x1 = 0.7829 | 1239
x1 = 0.8635 | 1247
x1 = 0.9243 | 1253
